The test concerns the target T1, HLE (Homo sapiens, UniProt P08246).
T1 construct: Purified elastase from human white blood cells; from tissue; host or cells: human white blood cells (purified enzyme)
T1 sequence (P08246 30-247 limits assumed): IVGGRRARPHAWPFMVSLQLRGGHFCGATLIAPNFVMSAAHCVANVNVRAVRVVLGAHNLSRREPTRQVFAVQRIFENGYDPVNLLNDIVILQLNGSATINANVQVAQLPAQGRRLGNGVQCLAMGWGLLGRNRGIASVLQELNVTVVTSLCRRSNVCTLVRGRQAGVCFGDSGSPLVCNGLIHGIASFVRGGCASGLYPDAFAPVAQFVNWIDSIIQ
The test is described as follows: Enzyme assay for inhibition of HLE (human leukocyte elastase). Format: biochemical. The following applies: purified elastase from human white blood cells, 10 nM; 10 minute preincubation; 0.35 mM MeO-succinyl-L-alanyl-L-alanyl-L-prolyl-L-valine-p-nitroanilide; pH 7.6; 10% dimethylsulfoxide; 410 nm; read-out: IC50 values against HLE. Here is the method: ENZYME ASSAY FOR INHIBITION OF HLE
ENZYME: Purified elastase from human white blood cells.
MeO-succinyl-L-alanyl-L-alanyl-L-prolyl-L-valine-
10 mM phosphate buffer (pH 7.6)
The enzyme activity was determined by monitoring the increase in absorbance at 410 nm caused by the hydrolysis of chromogenic substrates. Inhibition of enzyme by the compounds described were determined after a 10 minute preincubation with the enzyme in the reaction mixture minus substrate. Reaction was initiated by the addition of substrate. The concentration of human leukocyte elastase used for assay was at 10 nM.
By IC50 is commonly meant the concentration at which inhibition is half-maximal. For `CO[C@H]1C(=O)N2C(C(=O)N3CCN(C)CC3)=C(C)C3(CC34CCCC4)S(=O)(=O)C12` (stereo partly shown) [Compound 3], the half-inhibitory concentration (IC50) came out at 24.4 nM.

Consider `CO[C@H]1C(=O)N2C(C(=O)N3CCN(CC(=O)O)CC3)=C(C)C3(CC34CCCC4)S(=O)(=O)C12` (stereo partly shown) [Compound 4], for which the IC50 is 139 nM. With `CO[C@H]1C(=O)N2C(C(=O)N3CCC(C(=O)O)CC3)=C(C)C3(CC34CCCC4)S(=O)(=O)C12` (stereo partly shown) [Compound 5] the figure was 58.1 nM.

For `CO[C@H]1C(=O)N2C(C(=O)N3CCN(C)CC3)=C(C)C3(CC34CCCCC4)S(=O)(=O)C12` (stereo partly shown) [Compound 7], the IC50 came out at 6.4 nM. Next, `CO[C@H]1C(=O)N2C(C(=O)N3CCN(CC(=O)OC(C)(C)C)CC3)=C(C)C3(CC34CCCCC4)S(=O)(=O)C12` (stereo partly shown) [Compound 8]: 8.37 nM; `CO[C@H]1C(=O)N2C(C(=O)N3CCN(CC(=O)O)CC3)=C(C)C3(CC34CCCCC4)S(=O)(=O)C12` (stereo partly shown) [Compound 9]: 27 nM. Next, `CO[C@H]1C(=O)N2C(C(=O)N3CCN(C)CC3)=C(C)C3(CC34CCCCC4)S(=O)(=O)C12` (stereo partly shown) [Compound 10]: 8.4 nM. For `CO[C@H]1C(=O)N2C(C(=O)OC(C)(C)C)=C(COC(C)=O)C3(CC34CCCC4)S(=O)(=O)C12` (stereo partly drawn) [Compound 11, t-Butyl-7α-methoxy-2-spiro(2'-spirocyclopentyl)cyclopropyl-3-acetoxymethyl-3-cephem-4-carboxylate-1,1-dioxide], the IC50 was 9.1 nM. Next, `CO[C@H]1C(=O)N2C(C(=O)OC(C)(C)C)=C(CSc3nc(=O)c(O)nn3C)C3(CC34CCCC4)S(=O)(=O)C12` (stereo partly shown) [Compound 12]: 15 nM; `CO[C@H]1C(=O)N2C(C(=O)OC(C)(C)C)=C(CSc3ccccn3)C3(CC34CCCC4)S(=O)(=O)C12` (stereo partly shown) [Compound 13]: 9.4 nM; `CO[C@H]1C(=O)N2C(C(=O)OC(C)(C)C)=C(CSc3nnnn3C)C3(CC34CCCC4)S(=O)(=O)C12` (stereo partly shown) [Compound 14]: 15.3 nM. With `CO[C@H]1C(=O)N2C(C(=O)OC(C)(C)C)=C(CSc3nnc(C)s3)C3(CC34CCCC4)S(=O)(=O)C12` (stereo partly shown) [Compound 15] the figure was 10.3 nM. With `CO[C@H]1C(=O)N2C(C(=O)N3CCCCC3)=C(CSc3nc(=O)c(O)nn3C)C3(CC34CCCC4)S(=O)(=O)C12` (stereo partly shown) [Compound 16] the figure was 32.4 nM. In the case of `CC1=C(C(=O)N2CCC(C(=O)OC(C)(C)C)CC2)N2C(=O)CC2S(=O)(=O)C12CC21CCCC1` (stereo not shown) [Compound 17], the half-inhibitory concentration (IC50) stood at 870 nM. `CO[C@H]1C(=O)N2C(C(C)=O)=C(C)C3(CC34CCCC4)S(=O)(=O)C12` (stereo partly shown) [Compound 18]: the IC50 came to 10.7 nM. Next, `CON=C(C)C1=C(C)C2(CC23CCCC3)S(=O)(=O)C2[C@@H](OC)C(=O)N12` (stereo partly shown) [Compound 19]: 80.7 nM; `CO[C@H]1C(=O)N2C(C(=O)N3CCC(C(N)=O)CC3)=C(C)C3(CC34CCCC4)S(=O)(=O)C12` (stereo partly shown) [Compound 20]: 8.4 nM; `CO[C@H]1C(=O)N2C(C(=O)c3ccccc3)=C(C)C3(CC34CCCC4)S(=O)(=O)C12` (stereo partly shown) [Compound 21]: 3.9 nM. For `CC1=C(C(=O)OC(c2ccccc2)c2ccccc2)N2C(=O)CC2S(=O)(=O)C12CC21CCCC1` (stereo not shown) [Compound 22, benzhydryl 7,7-dihydro-2-spiro(2'-spirocyclopentyl)-cyclopropyl-3-methyl-3-cephem-4-carboxylate-1,1-dioxide], the half-maximal inhibitory concentration (IC50) worked out at 478 nM. For the compound `COC1C(=O)N2C(C(=O)N(C)CC(=O)O)=C(C)C3(CC34CCCC4)S(=O)(=O)C12` (stereo not shown) [Compound 23], the IC50 amounted to 75 nM. With `CO[C@H]1C(=O)N2C(C(=O)N3CCC(C(=O)O)CC3)=C(CSc3nc(=O)c(O)nn3C)C3(CC34CCCC4)S(=O)(=O)C12` (stereo partly shown) [Compound 24] the figure was 34 nM; with `CO[C@H]1C(=O)N2C(C(=O)N3CCN(C)CC3)=C(C)C3(CC34CCCC4)S(=O)(=O)C12` (stereo partly shown) [drawing 6], 27.3 nM.

The record behind these values is US5439904A, “2-spiro(2'-spirocycloalkyl)cyclopropyl cephalosporin sulfones as antiinflammatory and antigenerative agents” (Synphar Laboratories, Inc., priority 1993, dated 1995).
